The text below walks through data of US6841546B2, “Substituted tetracycline compounds as antifungal agents” (Paratek Pharmaceuticals, Inc., priority 2001, dated 2005).

The nature of the data set: Mammalian Cytotoxicity Assay (Resazurin). In kind it is cell-based. The settings on record: African green monkey (COS-1) and Chinese hamster (CHO). The procedure:
COS-1 and CHO cell suspensions are prepared, seeded into 96-well tissue culture treated black-walled microtiter plates (density determined by cell line), and incubated overnight at 37° C., in 5% CO2 and approximately 95% humidity. The following day serial dilutions of drug are prepared under sterile conditions and transferred to cell plates. Cell/Drug plates are incubated under the above conditions for 24 hours. Following the incubation period, media/drug is aspirated and 50 μl of Resazurin is added. Plates are then incubated under the above conditions for 2 hours and then in the dark at room temperature for an additional 30 minutes. Fluorescence measurements are taken (excitation 535 nm, emission 590 nm). The IC50 (concentration of drug causing 50% growth inhibition) is then calculated.
In general terms: The colour change of resazurin is a common sign of viable cells or microbes.

By IC50 is commonly meant the concentration that inhibits the measured activity by half. For the compound `C[C@H]1c2cccc(O)c2C(=O)C2=C(O)[C@]3(O)C(=O)C(C(N)=O)=C(O)[C@@H](N(C)C)[C@@H]3[C@@H](O)[C@@H]21` [doxycycline], the IC50 at 24 h is greater than 25 µg/mL.
To `CN(C)c1ccc(O)c2c1C[C@H]1C[C@H]3[C@H](N(C)C)C(O)=C(C(N)=O)C(=O)[C@@]3(O)C(O)=C1C2=O` [minocycline] belongs greater than 25 µg/mL.
